Experiments:
Conditions in all cases: Homo sapiens
CCRF-CEM [1] = test: Compound was tested for anti-HIV activity in TK-deficient CEM cells by inhibition of reverse transcriptase activity; type: functional, cell-based
CCRF-CEM [2] = test: Compound was tested for anti-HIV activity in TK-deficient CEM cells by p24 production assay; type: functional, cell-based
[3] = Compound was tested for anti-HIV activity in normal peripheral blood mononuclear cells by microculture tetrazolium assay; type: functional
CCRF-CEM [4] = test: Compound was tested for anti-HIV activity in TK-deficient CEM cells by microculture tetrazolium assay; type: functional, cell-based
[5] = Compound was tested for anti-HIV activity in normal peripheral blood mononuclear cells infected with HIV-2 virus by inhibition of reverse transcriptase activity; type: functional
[6] = Compound was tested for anti-HIV activity in normal peripheral blood mononuclear cells infected with HIV-1(RTMDR-1) virus by inhibition of reverse transcriptase activity; type: functional
[7] = Compound was tested for anti-HIV activity in normal peripheral blood mononuclear cells by inhibition of reverse transcriptase activity; type: functional
[8] = Compound was tested for anti-HIV activity in normal peripheral blood mononuclear cells by p24 production assay; type: functional

Row | SMILES | IC50 (CCRF-CEM [1]) [nM] | IC50 (CCRF-CEM [2]) [nM] | IC50 [3] [nM] | IC50 (CCRF-CEM [4]) [nM] | IC50 [5] [nM] | IC50 [6] [nM] | IC50 [7] [nM] | IC50 [8] [nM]
1 | COC(=O)C(C)NP(=O)(OC[C@@H]1C=C[C@H](n2cc(C)c(=O)[nH]c2=O)O1)Oc1ccccc1 (some centres not stated) | 100 | 100 | > 10000 | > 10000 | – | – | – | –
2 | COC(=O)C(C)NP(=O)(OC[C@H]1O[C@@H](n2cc(C)c(=O)[nH]c2=O)C[C@@H]1N=[N+]=[N-])Oc1ccc(Br)cc1 (some centres not stated) | 40 | – | > 10000 | > 10000 | 3900 | 1500 | 4 | –
3 | COC(=O)C(C)NP(=O)(OC[C@@H]1C=C[C@H](n2cc(C)c(=O)[nH]c2=O)O1)Oc1ccc(OC)cc1 (some centres not stated) | 300 | 100 | > 10000 | > 10000 | – | – | 30 | 30
4 | Cc1cn([C@H]2C[C@H](N=[N+]=[N-])[C@@H](CO)O2)c(=O)[nH]c1=O (single isomer, unassigned) [ZIDOVUDINE] | – | – | – | – | 2400 | 2000 | – | –
5 | COC(=O)C(C)NP(=O)(OC[C@@H]1C=C[C@H](n2cc(C)c(=O)[nH]c2=O)O1)Oc1ccc(Br)cc1 (some centres not stated) [STAMPIDINE] | 60 | 40 | > 10000 | > 10000 | 400 | 20 | 40 | 20
6 | Cc1cn([C@H]2C=C[C@@H](CO)O2)c(=O)[nH]c1=O [STAVUDINE] | 2400 | 600 | > 10000 | > 10000 | – | – | 40 | 20

Reference: ChEMBL document CHEMBL1131269, “Enhancing effects of a mono-bromo substitution at the para position of the phenyl moiety on the metabolism and anti-HIV activity of d4T-phenyl methoxyalaninyl phosphate derivatives” (Bioorg Med Chem Lett, 1998)
